Results: ChEMBL document CHEMBL5523723, “G Protein-Coupled Estrogen Receptor-Mediated Anti-Inflammatory and Mucosal Healing Activity of a Trimethylpyridinol Analogue in Inflammatory Bowel Disease” (J Med Chem, 2024)

Legend:
U-937 = test: Induction of apoptosis in human U-937 cells assessed as viable cells at 10 uM incubated for 24 hrs by Annexin V FITC/PI staining based flow cytometry analysis ( Rvb = 95.2 +/- 0.4%); type: functional; settings: read-out: Activity
[1] = Cmax in Sprague-Dawley rat at 1 mg/kg, po by LC-MS analysis; type: ADME, organism-based; settings: in vivo
[2] = target: T1, G-protein coupled estrogen receptor 1 (Homo sapiens, UniProt Q99527); test: Binding affinity to human GPER by SPR method
[3] = Acute toxicity in ICR mouse assessed as change in food intake at 30 to 300 mg/kg, po measured every other day for 14 days; type: organism-based; settings: in vivo, 336 h, dose 30-300 mg/kg, time 14 day
[4] = target: T2, Amine oxidase [flavin-containing] B (Homo sapiens, UniProt P27338); test: Inhibition of MAOB (unknown origin)
T2 sequence (P27338 whole entry): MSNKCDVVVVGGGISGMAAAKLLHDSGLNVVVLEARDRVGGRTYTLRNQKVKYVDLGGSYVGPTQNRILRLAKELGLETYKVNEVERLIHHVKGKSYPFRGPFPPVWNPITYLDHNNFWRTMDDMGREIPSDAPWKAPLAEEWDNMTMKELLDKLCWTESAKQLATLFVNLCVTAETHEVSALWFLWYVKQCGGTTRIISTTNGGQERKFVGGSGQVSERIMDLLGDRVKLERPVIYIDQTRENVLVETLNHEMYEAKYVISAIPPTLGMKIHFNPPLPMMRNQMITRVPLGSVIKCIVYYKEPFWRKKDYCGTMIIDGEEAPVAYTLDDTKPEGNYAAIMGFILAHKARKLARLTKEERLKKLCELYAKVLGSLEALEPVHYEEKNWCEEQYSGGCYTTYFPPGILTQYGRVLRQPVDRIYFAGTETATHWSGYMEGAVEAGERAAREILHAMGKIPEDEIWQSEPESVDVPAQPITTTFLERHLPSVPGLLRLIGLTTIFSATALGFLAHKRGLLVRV

[5] = Acute toxicity in ICR mouse assessed as change in kidney weight at 30 to 300 mg/kg, po measured every other day for 14 days […]; type: organism-based; settings: in vivo, 336 h, dose 30-300 mg/kg, time 14 day
[6] = Acute toxicity in ICR mouse assessed as abnormal behavior at 30 to 300 mg/kg, po measured every other day for 14 days; type: organism-based; settings: in vivo, 336 h, dose 30-300 mg/kg, time 14 day
[7] = Acute toxicity in ICR mouse assessed as change in liver weight at 30 to 300 mg/kg, po measured every other day for 14 days […]; type: organism-based; settings: in vivo, 336 h, dose 30-300 mg/kg, time 14 day
[8] = AUC(0 to t) in Sprague-Dawley rat at 1 mg/kg, po by LC-MS analysis; type: ADME, organism-based; settings: in vivo
[9] = AUC(0 to t) in Sprague-Dawley rat at 1 mg/kg, iv by LC-MS analysis; type: ADME, organism-based; settings: in vivo
[10] = target: Prostaglandin G/H synthase 1 (Homo sapiens, UniProt P23219); test: Inhibition of COX-1 (unknown origin)
[11] = target: T1, G-protein coupled estrogen receptor 1; test: Inhibition of GPER1 (unknown origin)
[12] = Cmax in Sprague-Dawley rat at 5 mg/kg, po by LC-MS analysis; type: ADME, organism-based; settings: in vivo
[13] = Half-life in Sprague-Dawley rat at 1 mg/kg, iv by LC-MS analysis; type: ADME, organism-based; settings: in vivo
[14] = Oral bioavailability in Sprague-Dawley rat at 1 mg/kg by LC-MS analysis; type: ADME, organism-based; settings: in vivo
CYP3A4 = CYP3A4 (Homo sapiens, UniProt P08684); test: Inhibition of CYP3A4 in human liver microsomes assessed as remaining activity at 10 uM using midazolam as substrate preincubated for 5 mins followed by NADPH generating system addition for 15 mins by LC-MS/MS method relative to control; type: ADME, Microsome; settings: probe midazolam, time 20 min, read-out: Activity
[15] = AUC(0 to t) in Sprague-Dawley rat at 5 mg/kg, po by LC-MS analysis; type: ADME, organism-based; settings: in vivo
[16] = Acute toxicity in ICR mouse assessed as change in water intake at 30 to 300 mg/kg, po measured every other day for 14 days; type: organism-based; settings: in vivo, 336 h, dose 30-300 mg/kg, time 14 day
[17] = Volume of distribution at steady state in Sprague-Dawley rat at 1 mg/kg, iv by LC-MS analysis; type: ADME, organism-based; settings: in vivo, read-out: Vdss
[18] = Acute toxicity in ICR mouse assessed as change in histology of heart at 30 to 300 mg/kg, po measured every other day for 14 days by H and E staining based assay; type: organism-based; settings: in vivo, 336 h, dose 30-300 mg/kg, time 14 day
[19] = Oral bioavailability in Sprague-Dawley rat at 5 mg/kg by LC-MS analysis; type: ADME, organism-based; settings: in vivo
HT-29 = test: Induction of apoptosis in human HT-29 cells assessed as viable cells at 1 uM incubated for 24 hrs by Annexin V FITC/PI staining based flow cytometry analysis ( Rvb = 99 +/- 0.1%); type: functional; settings: read-out: Activity
[20] = Acute toxicity in ICR mouse assessed as change in histology of kidney at 30 to 300 mg/kg, po measured every other day for 14 days by H and E staining based assay; type: organism-based; settings: in vivo, 336 h, dose 30-300 mg/kg, time 14 day
[21] = Acute toxicity in ICR mouse assessed as digestive disorder at 30 to 300 mg/kg, po measured every other day for 14 days; type: organism-based; settings: in vivo, 336 h, dose 30-300 mg/kg, time 14 day
[22] = Acute toxicity in ICR mouse assessed as change in heart weight at 30 to 300 mg/kg, po measured every other day for 14 days […]; type: organism-based; settings: in vivo, 336 h, dose 30-300 mg/kg, time 14 day
CYP1A2 = target: T3, CYP1A2 (Homo sapiens, UniProt P05177); test: Inhibition of CYP1A2 in human liver microsomes assessed as remaining activity at 10 uM using phenacetin as substrate preincubated for 5 mins followed by NADPH generating system addition for 15 mins by LC-MS/MS method relative to control; type: ADME, Microsome; settings: probe phenacetin, time 20 min, read-out: Activity
T3 sequence (P05177 whole entry): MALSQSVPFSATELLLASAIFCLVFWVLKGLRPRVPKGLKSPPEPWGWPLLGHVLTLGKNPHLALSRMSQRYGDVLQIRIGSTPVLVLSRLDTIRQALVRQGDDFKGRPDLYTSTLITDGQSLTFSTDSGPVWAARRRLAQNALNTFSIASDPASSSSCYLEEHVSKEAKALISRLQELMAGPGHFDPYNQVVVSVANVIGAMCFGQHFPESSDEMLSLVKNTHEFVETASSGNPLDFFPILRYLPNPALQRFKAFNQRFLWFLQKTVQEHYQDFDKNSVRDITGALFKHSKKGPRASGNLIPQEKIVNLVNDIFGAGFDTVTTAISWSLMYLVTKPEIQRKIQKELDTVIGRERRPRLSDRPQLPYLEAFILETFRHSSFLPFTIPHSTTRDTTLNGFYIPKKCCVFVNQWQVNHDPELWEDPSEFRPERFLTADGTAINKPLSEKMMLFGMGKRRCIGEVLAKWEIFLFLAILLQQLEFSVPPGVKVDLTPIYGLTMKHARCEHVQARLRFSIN

[23] = Acute toxicity in ICR mouse assessed as weight loss at 30 to 300 mg/kg, po measured every other day for 14 days; type: organism-based; settings: in vivo, 336 h, dose 30-300 mg/kg, time 14 day

T1 sequence (Q99527 whole entry): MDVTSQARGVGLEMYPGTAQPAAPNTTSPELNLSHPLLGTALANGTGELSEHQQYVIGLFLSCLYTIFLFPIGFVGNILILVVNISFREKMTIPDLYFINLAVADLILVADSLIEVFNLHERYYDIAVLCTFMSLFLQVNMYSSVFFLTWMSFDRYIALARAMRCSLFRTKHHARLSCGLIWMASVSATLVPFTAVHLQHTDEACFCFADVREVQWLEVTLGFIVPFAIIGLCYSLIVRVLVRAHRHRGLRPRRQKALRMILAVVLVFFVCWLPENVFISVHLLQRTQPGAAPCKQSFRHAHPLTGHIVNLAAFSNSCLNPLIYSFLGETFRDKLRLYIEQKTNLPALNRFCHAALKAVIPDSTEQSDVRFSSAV
Sequence of Prostaglandin G/H synthase 1 (P23219 whole entry): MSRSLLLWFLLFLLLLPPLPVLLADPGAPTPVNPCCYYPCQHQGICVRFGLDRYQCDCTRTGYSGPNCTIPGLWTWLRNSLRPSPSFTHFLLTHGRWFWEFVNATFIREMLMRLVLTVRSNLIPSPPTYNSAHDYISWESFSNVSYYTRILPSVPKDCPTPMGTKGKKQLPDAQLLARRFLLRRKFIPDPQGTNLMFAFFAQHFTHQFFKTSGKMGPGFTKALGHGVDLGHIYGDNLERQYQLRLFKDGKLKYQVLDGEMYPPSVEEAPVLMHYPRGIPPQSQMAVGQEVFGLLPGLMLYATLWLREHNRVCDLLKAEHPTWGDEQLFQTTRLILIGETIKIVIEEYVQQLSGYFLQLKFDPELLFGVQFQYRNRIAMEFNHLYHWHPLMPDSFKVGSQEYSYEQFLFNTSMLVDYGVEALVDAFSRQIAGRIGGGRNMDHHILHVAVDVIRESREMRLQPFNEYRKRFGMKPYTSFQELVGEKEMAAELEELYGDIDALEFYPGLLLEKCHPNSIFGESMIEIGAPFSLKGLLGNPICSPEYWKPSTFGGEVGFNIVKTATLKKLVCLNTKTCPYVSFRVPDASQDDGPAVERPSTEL
Sequence of CYP3A4 (P08684 whole entry): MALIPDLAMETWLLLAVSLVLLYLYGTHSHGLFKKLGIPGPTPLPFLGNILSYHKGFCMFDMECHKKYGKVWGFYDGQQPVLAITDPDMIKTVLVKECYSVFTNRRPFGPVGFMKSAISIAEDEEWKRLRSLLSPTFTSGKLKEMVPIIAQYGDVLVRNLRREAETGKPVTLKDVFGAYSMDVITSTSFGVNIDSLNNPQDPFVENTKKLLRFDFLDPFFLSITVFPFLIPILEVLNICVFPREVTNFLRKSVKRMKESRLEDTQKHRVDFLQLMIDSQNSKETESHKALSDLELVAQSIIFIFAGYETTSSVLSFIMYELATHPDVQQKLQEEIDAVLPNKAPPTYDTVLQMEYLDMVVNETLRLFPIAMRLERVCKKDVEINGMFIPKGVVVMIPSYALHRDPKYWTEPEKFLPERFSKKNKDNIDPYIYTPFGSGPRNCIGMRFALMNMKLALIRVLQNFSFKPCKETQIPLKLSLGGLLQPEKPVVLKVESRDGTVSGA

Q: For `Cc1nc(NC(=O)c2sc3cc(F)ccc3c2Cl)c(C)c(C)c1O`, which viability at 10 µM (U-937) is on record?
A: 95.2%

Q: What about the Cmax [1] of the same compound?
A: 51.9 ng/mL

Q: What about the Kd [2] of the same compound?
A: 23.7 nM

Q: And the Activity [3]?
A: Non-Toxic

Q: And the IC50 [4]?
A: 54 nM

Q: What about the Activity [5] of the same compound?
A: Non-Toxic

Q: What about the Activity [6] of the same compound?
A: Non-Toxic

Q: And the Activity [7]?
A: Non-Toxic

Q: What about the AUCt [8] of the same compound?
A: 246.3 ng·h/mL

Q: What about the AUCt [9] of the same compound?
A: 10006.6 ng·h/mL

Q: And the IC50 [10]?
A: 800 nM

Q: And the EC50 [11]?
A: 480 nM

Q: What about the Cmax [12] of the same compound?
A: 760 ng/mL

Q: What about the half-life [13] of the same compound?
A: 2 h

Q: And the F [14]?
A: 24.5%

Q: What about the activity at 0.25 h, 10 µM (CYP3A4) of the same compound?
A: 89.9%

Q: And the AUCt [15]?
A: 1849.2 ng·h/mL

Q: And the Activity [16]?
A: Non-Toxic

Q: And the Vd [17]?
A: 1.3 L/kg

Q: And the Activity [18]?
A: Non-Toxic

Q: What about the F [19] of the same compound?
A: 36.7%

Q: And the viability at 1 µM (HT-29)?
A: 98.8%

Q: And the Activity [20]?
A: Non-Toxic

Q: And the Activity [21]?
A: Non-Toxic

Q: And the Activity [22]?
A: Non-Toxic

Q: And the activity at 0.25 h, 10 µM (CYP1A2)?
A: 89.2%

Q: What about the Activity [23] of the same compound?
A: Non-Toxic
